Source: patent US8663646B2, “P53 peptide vaccine” (priority 2007, dated 2014)
Read-outs that look alike come from different tables or passages of the source. Where no end group is shown, it is not given here.

Experiments:
HLA-A*1101 [1] = biological target: T1, HLA-A*1101 (Homo sapiens, UniProt P04439, A114D/D185E/E176A/F33Y/L180Q/S129P/T187R); test: Competition based cellular binding assay, HLA-A*1101 (B-cell line BVR); conditions: for HLA binding Affinity (Table 5): HLA type A11
T1 construct: B-cell lines used are: CAA (A*0101), EKR (A*0301), BVR (A*1101), VIJF (A*2401); endogenous in cells; host or cells: B-cell line BVR

HLA-A*1101 [2] = biological target: T1, HLA-A*1101; test: Stability of peptide-HLA complex, binding at 4° C. and 20° C., HLA-A*1101; conditions: for HLA binding Stability (Table 5): HLA type A11; for Peptide Binding Stability: HLA-A*1101, IC50 at 20° C. vs 4° C.
Protocol: (§1) Stability of other peptide-HLA complexes was preferably determined as follows. […] Peptides of >50% of the initial complexes was lost within 2 hours were considered unstable. […] The rest was designated as unstable peptide binding.
(§2) Peptides 8-11 residues in length were selected based on typical anchor residues for HLA-A*0101, A*0301, A*1101 and HLA-A*2401 (Rammensee H G et al). The capacity of peptides to bind was tested in a competition based cellular binding assay as previously described (van der Burg S H et al 1995). FL-labeled reference peptides were synthesized as Cys-derivative (van der Burg S H et al 1995). Fluorescence labeled reference peptides used were: YLEPAC(FL)AK (SEQ ID NO: 87) (HLA-A*0101) and KVFPC(FL)ALINK (SEQ ID NO: 88) (HLA-A*1101) (Sette A et al), KVFPC(FL)ALINK (SEQ ID NO: 89) (HLAA*0301) (van der Burg S H et al 1995) and RYLKC(FL)QQLL (SEQ ID NO: 90) (A*2401) (Dai L C et al). B-cell lines used are: CAA (A*0101), EKR (A*0301), BVR (A*1101), VIJF (A*2401). The relative binding capacity of the peptides is expressed as the peptide concentration to inhibit 50% (1050) of the binding of the reference peptide. […] Peptide stabilization for HLA-A*0201 was performed as previously described (van der Burg S H et al, 1996). Peptides of >50% of the initial complexes was lost within 2 hours were considered unstable. Stability of other peptide-HLA complexes was determined as follows. Peptide binding was performed at 4° C. and 20° C. and 1050 were determined. […] The rest was designated as unstable peptide binding.

[3] = biological target: T2, 20S immuno-proteasomes from mouse B-cell line (RMA) (Mus musculus, UniProt O35955+P28063+P28076); test: In vitro proteasome mediated digestion of 30-mers, mass spectrometry, immunoproteasome RMA; assay type: biochemical; conditions: 30 residue long precursor peptides
T2 construct: 20S immuno-proteasomes were purified from a mouse B-cell line (RMA); endogenous in cells; host or cells: RMA cells; 20S proteasome purified from them
Protocol: (§3) In the context of the invention, “being inefficiently processed by a proteasome” preferably means that within the first hour of digestion by a proteasome less than 1% of total digested peptide is found. The processing by a proteasome is preferably assessed by incubating a purified proteasome, more preferably a human proteasome with a peptide comprising the potential CTL epitope (30 amino acid length approximately) in a proteasome digestion buffer during at least one hour at 37° C. The reaction is subsequently stopped by adding trifluoroacetic acid. Analysis of the digested peptides is performed with electrospray ionization mass spectrometry (see example 1). Even more preferably, the human proteasome is an immunoproteasome from B-LCL JY cells (Kessler J H et al. 2001).
(§4) 20S immuno-proteasomes were purified from a mouse B-cell line (RMA) and a human B-LCL cell line (JY) and 20S household proteasomes were purified from human tumor cell line (HeLa) as described (Kessler J H et al 2001). To assess kinetics, digestions were performed with different incubation periods as indicated. Briefly, peptides containing the (potential) CTL epitopes (30 mers, 20 μg) were incubated with 1 μg of purified proteasome at 37° C. for 1 h, 4 h and 24 h in 300 μl proteasome digestion buffer, trifluoroacetic acid (30 μl) was added to stop the digestion and samples were stored at −20° C. before mass spectrometric analysis. Electrospray ionization mass spectrometry was performed on a hybrid quadrupole time-of-flight mass spectromter, a Q-TOF (Micromass), equipped with an on-line nanoelectrospray interface with an approximate flow rate of […] as described (Kessler J H et al 2001). The peaks in the mass spectrum were searched in the digested precursor peptide using the Biolynx/proteins software (Micromass) supplied with the mass spectrometer. The intensity of the peaks in the mass spectra was used to establish the relative amounts of peptides generated after proteasome digestion. The relative amounts of the peptides are given as a percentage of the total amount of peptide digested by the proteasome at the indicated incubation time. Major cleavage sites are defined as more than >1% of total digested peptide within the first hour.

[4] = biological target: T3, 20S immuno-proteasomes from human B-LCL cell line (JY) (Homo sapiens, UniProt P28062+P28065+P40306); test: In vitro proteasome mediated digestion of 30-mers, mass spectrometry, immunoproteasome JY; assay type: biochemical; conditions: 30 residue long precursor peptides
T3 construct: purified from a mouse B-cell line (RMA) and a human B-LCL cell line (JY); endogenous in cells; host or cells: B-LCL JY cells; 20S proteasome purified from them
Protocol: as §3, §4

HLA-A*0301 [5] = biological target: T4, HLA-A*0301 (Homo sapiens, UniProt P04439); test: Stability of peptide-HLA complex, binding at 4° C. and 20° C., HLA-A*0301; conditions: for HLA binding Stability (Table 5): HLA type A3; for Peptide Binding Stability: HLA-A*0301, IC50 at 20° C. vs 4° C.
T4 construct: B-cell lines used are: CAA (A*0101), EKR (A*0301), BVR (A*1101), VIJF (A*2401); endogenous in cells; host or cells: B-cell line EKR
Protocol: as §1, §2

HLA-A*0301 [6] = biological target: T4, HLA-A*0301; test: Competition based cellular binding assay, HLA-A*0301 (B-cell line EKR); conditions: for HLA binding Affinity (Table 5): HLA type A3; for IC50 / Peptide Binding Affinity: HLA-A*0301, IC50 category; for IC50: read-out: Peptide Binding Affinity
[7] = HLA-A*1101, IC50 category, read-out: Peptide Binding Affinity

Compound | HLA binding Affinity (Table 5) (HLA-A*1101 [1]) | Peptide Binding Affinity (HLA-A*1101 [1]; HLA-A*1101, IC50 category) | HLA binding Stability (Table 5) (HLA-A*1101 [2]) | Peptide Binding Stability (HLA-A*1101 [2]) | Proteasomal Cleavage of C-terminus, IP (RMA) [3] | Proteasomal Cleavage of C-terminus, IP (JY) [4] | HLA binding Stability (Table 5) (HLA-A*0301 [5]) | Peptide Binding Stability (HLA-A*0301 [5]) | HLA binding Affinity (Table 5) (HLA-A*0301 [6]) | IC50 (HLA-A*0301 [6]) [µM] | IC50 (HLA-A*1101 [1]; [7]) [µM] | Peptide Binding Affinity (HLA-A*0301 [6]) | IC50 (HLA-A*1101 [1]) [µM]
C[C@@H](O)[C@H](NC(=O)[C@@H](N)CC(N)=O)C(=O)N[C@@H](CO)C(=O)N[C@@H](CO)C(=O)N[C@@H](CO)C(=O)N1CCC[C@H]1C(=O)N[C@@H](CCC(N)=O)C(=O)N1CCC[C@H]1C(=O)N[C@@H](CCCCN)C(=O)O [p53 311-319] | high | high | +/− (Peptides that displayed IC50 at 20 °C of more than twice the IC50 at 4 °C but IC50 < 15 μM were considered to bind with intermediate stability.) | +/− (Peptides that displayed IC50 at 20 °C of more than twice the IC50 at 4 °C but IC50 < 15 μM were considered to bind with intermediate stability.) |  |  |  |  |  |  |  |  | 
CC(C)C[C@H](NC(=O)[C@@H](N)Cc1ccccc1)C(=O)N[C@@H](Cc1c[nH]cn1)C(=O)N[C@@H](CO)C(=O)NCC(=O)N[C@H](C(=O)N[C@@H](C)C(=O)N[C@@H](CCCCN)C(=O)O)[C@@H](C)O [p53 113-120] |  |  |  |  | + (Major cleavage sites are defined as more than >1% of total digested peptide within the first hour) | + (Major cleavage sites are defined as more than >1% of total digested peptide within the first hour) | − (The rest was designated as unstable peptide binding.) | +/− (Peptides that displayed IC50 at 20 °C of more than twice the IC50 at 4 °C but IC50 < 15 μM were considered to bind with intermediate stability.) | int | 5 to 15 |  |  | 
C[C@@H](O)[C@H](NC(=O)[C@@H](N)CC(N)=O)C(=O)N[C@@H](CO)C(=O)N[C@@H](CO)C(=O)N[C@@H](CO)C(=O)N1CCC[C@H]1C(=O)N[C@@H](CCC(N)=O)C(=O)N1CCC[C@H]1C(=O)N[C@@H](CCCCN)C(=O)N[C@@H](CCCCN)C(=O)O [p53 311-320] | high | high | +/− (Peptides that displayed IC50 at 20 °C of more than twice the IC50 at 4 °C but IC50 < 15 μM were considered to bind with intermediate stability.) | +/− (Peptides that displayed IC50 at 20 °C of more than twice the IC50 at 4 °C but IC50 < 15 μM were considered to bind with intermediate stability.) |  |  |  |  |  |  |  |  | 
RTEEENLRK [p53 283-291] | int |  | +/− (Peptides that displayed IC50 at 20 °C of more than twice the IC50 at 4 °C but IC50 < 15 μM were considered to bind with intermediate stability.) | +/− (Peptides that displayed IC50 at 20 °C of more than twice the IC50 at 4 °C but IC50 < 15 μM were considered to bind with intermediate stability.) |  |  |  |  |  |  | 5 to 15 |  | 
CC(C)C[C@H](NC(=O)[C@H](Cc1ccccc1)NC(=O)CNC(=O)[C@H](CC(C)C)NC(=O)[C@@H](N)CCCNC(=N)N)C(=O)N[C@@H](Cc1c[nH]cn1)C(=O)N[C@@H](CO)C(=O)NCC(=O)N[C@H](C(=O)N[C@@H](C)C(=O)N[C@@H](CCCCN)C(=O)O)[C@@H](C)O [p53 110-120] |  |  |  |  | + (Major cleavage sites are defined as more than >1% of total digested peptide within the first hour) | + (Major cleavage sites are defined as more than >1% of total digested peptide within the first hour) |  | + (Stable peptides displayed IC50 at 20 °C that deviated <2 times of the IC50 at 4° C.) |  |  |  | high | 
GFLHSGTAK [p53 112-120] | int |  | − (The rest was designated as unstable peptide binding.) | − (The rest was designated as unstable peptide binding.) | + (Major cleavage sites are defined as more than >1% of total digested peptide within the first hour) | + (Major cleavage sites are defined as more than >1% of total digested peptide within the first hour) | − (The rest was designated as unstable peptide binding.) | − (The rest was designated as unstable peptide binding.) | int | 5 to 15 | 5 to 15 |  | 
GQSTSRHKK [p53 374-382] | int |  | +/− (Peptides that displayed IC50 at 20 °C of more than twice the IC50 at 4 °C but IC50 < 15 μM were considered to bind with intermediate stability.) | +/− (Peptides that displayed IC50 at 20 °C of more than twice the IC50 at 4 °C but IC50 < 15 μM were considered to bind with intermediate stability.) |  |  |  |  |  |  |  |  | 5 to 15
CC(C)C[C@H](NC(=O)[C@H](Cc1c[nH]cn1)NC(=O)[C@H](CO)NC(=O)[C@H](CO)NC(=O)[C@H](Cc1c[nH]cn1)NC(=O)[C@H](C)NC(=O)[C@@H](N)CCCNC(=N)N)C(=O)N[C@@H](CCCCN)C(=O)O [p53 363-370] | int |  | +/− (Peptides that displayed IC50 at 20 °C of more than twice the IC50 at 4 °C but IC50 < 15 μM were considered to bind with intermediate stability.) | +/− (Peptides that displayed IC50 at 20 °C of more than twice the IC50 at 4 °C but IC50 < 15 μM were considered to bind with intermediate stability.) |  |  | + (Stable peptides displayed IC50 at 20 °C that deviated <2 times of the IC50 at 4° C.) | + (Stable peptides displayed IC50 at 20 °C that deviated <2 times of the IC50 at 4° C.) | high |  | 5 to 15 | high | 
C[C@@H](O)[C@H](N)C(=O)N[C@@H](CO)C(=O)N[C@@H](CO)C(=O)N[C@@H](CO)C(=O)N1CCC[C@H]1C(=O)N[C@@H](CCC(N)=O)C(=O)N1CCC[C@H]1C(=O)N[C@@H](CCCCN)C(=O)O [p53 312-319] | high | high | +/− (Peptides that displayed IC50 at 20 °C of more than twice the IC50 at 4 °C but IC50 < 15 μM were considered to bind with intermediate stability.) | +/− (Peptides that displayed IC50 at 20 °C of more than twice the IC50 at 4 °C but IC50 < 15 μM were considered to bind with intermediate stability.) |  |  |  |  |  |  |  |  | 
